Inconclusive results are not listed. Active and inactive are the calls of the source.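 How the source made its calls: active means EC50 no more than tenfold above the top concentration tested; inconclusive means flat fit with effect between 30% and 70%, or unusable fit; inactive means EC50 beyond tenfold above the top dose.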
System: BJeLR fibroblast viability, alamar blue fluorescence, 48 h
Test: growth inhibition of engineered Ras-driven BJ cells – cell-based, alamar blue fluorescence, cherrypicked samples, dose response (AID 2631)

Compound	EC50
CCc1ccc(/C=C2\SC(=S)N(CCC(=O)NCCCN3CCOCC3)C2=O)cc1	> 6.67 µM (inactive)
CCc1ccc(/C=C2/SC(=S)N(CCC(=O)NCCCN3CCOCC3)C2=O)cc1	> 6.67 µM (inactive)

Source: PubChem BioAssay AID2631 (Broad Institute, 2010)
